± gives the standard deviation of the averaged measurements.
Experiments:
Experiment in all cases: level (log10 ratio to DMSO vehicle control); higher = higher biomarker level / cell amount than vehicle control
Details in all cases: in DMSO
[1] = compound: O=C(O)C(F)(F)C(F)(F)C(F)(F)C(F)(F)C(F)(F)C(F)(F)C(F)(F)C(F)(F)C(F)(F)F [Perfluorodecanoic acid]
Description: (§1)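 BioMAP Diversity Plus panel of 12 human primary cell co-culture systems (3C, 4H, LPS, SAg, BT, BF4T, BE3C, CASM3C, HDF3CGF, KF3CT, MyoF, Mphg). Compounds were added 1 h before stimulation and left for 24 h (MyoF 48 h; BT 72 h for soluble read-outs or 6 d for IgG). Biomarkers were read by ELISA, cytotoxicity by SRB, PBMC viability and proliferation by Alamar Blue. Each well value was divided by the mean of 8 DMSO control wells on the same plate and log10 transformed; duplicate blinded samples were tested at 4 concentrations.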

[2] = compound: FC(F)(F)C(F)(C(F)(F)F)C(F)(F)C(F)(F)CC1CO1 [3-(Perfluoro-3-methylbutyl)-1,2-propenoxide]
Description: as §1

[3] = compound: FC(F)(F)C(F)(F)C(F)(F)C(F)(F)C(F)(F)C(F)(F)I [Perfluoro-1-iodohexane]
Description: as §1

[4] = compound: FC(F)C(F)(F)COCC1CO1 [((2,2,3,3-Tetrafluoropropoxy)methyl)oxirane]
Description: as §1

[5] = compound: COC(=O)CCC(F)(F)C(F)(F)C(F)(F)C(F)(F)F [Methyl 2H,2H,3H,3H-perfluoroheptanoate]
Description: as §1

[6] = compound: O=C(O)C(F)(F)C(F)(F)C(F)(F)C(F)(F)C(F)(F)C(F)(F)C(F)(F)C(F)F [9-H-Perfluorononanoic acid]
Description: as §1

[7] = compound: C=CC(=O)OCC(F)(F)C(F)(F)C(F)(F)C(F)(F)C(F)(F)C(F)(F)C(F)(F)F [1H,1H-Perfluorooctyl acrylate]
Description: as §1

Test System	level (log10) ([1]; 6700 nM)	level (log10) ([1]; 20000 nM)	level (log10) ([2]; 6700 nM)	level (log10) ([2]; 20000 nM)	level (log10) ([3]; 6700 nM)	level (log10) ([3]; 20000 nM)	level (log10) ([3]; 60000 nM)	level (log10) ([4]; 6700 nM)	level (log10) ([4]; 20000 nM)	level (log10) ([4]; 60000 nM)	level (log10) ([5]; 6700 nM)	level (log10) ([5]; 20000 nM)	level (log10) ([5]; 60000 nM)	level (log10) ([6]; 6700 nM)	level (log10) ([6]; 20000 nM)	level (log10) ([6]; 60000 nM)	level (log10) ([7]; 6700 nM)	level (log10) ([7]; 20000 nM)	level (log10) ([7]; 60000 nM)
3C:CD87/uPAR	0.011 ± 0.02	-0.01 ± 0.02	-0.0085 ± 0.00071	-0.003 ± 0.0028	-0.0125 ± 0.032	0.004 ± 0.0071	0.0285 ± 0.0035	0.0035 ± 0.012	-0.002 ± 0.0042	0.009 ± 0.0042	-0.028 ± 0.047	-0.022 ± 0.072	0.0015 ± 0.077	-0.013 ± 0.0042	-0.0105 ± 0.023	-0.029 ± 0.034	-0.0055 ± 0.012	-0.0075 ± 0.0064	0.004
3C:CXCL8/IL-8	0.009 ± 0.013	0.0155 ± 0.021	-0.0065 ± 0.018	0.008 ± 0.014	-0.014 ± 0.064	-0.01 ± 0.065	0.0365 ± 0.079	-0.0255 ± 0.005	-0.0275 ± 0.0021	0.003 ± 0.042	-0.021 ± 0.023	-0.0045 ± 0.021	0.012 ± 0.03	-0.0115 ± 0.011	0.015 ± 0.0057	0.0765 ± 0.005	0.0075 ± 0.013	-0.008 ± 0.0042	0.016 ± 0.03
3C:CXCL9/MIG	0.002	0.0005 ± 0.0064	-0.011 ± 0.0042	-0.0025 ± 0.005	0.0045 ± 0.025	0.007 ± 0.014	0.0075 ± 0.029	0.0045 ± 0.013	-0.0065 ± 0.016	-0.0035 ± 0.0078	-0.011 ± 0.011	-0.0115 ± 0.012	-0.0055 ± 0.015	-0.013 ± 0.0071	0.0095 ± 0.00071	0.0045 ± 0.0021	0.0015 ± 0.0035	-0.002 ± 0.014	0.0115 ± 0.005
3C:HLA-DR	-0.0035 ± 0.0021	-0.006 ± 0.013	0.0085 ± 0.00071	0.018 ± 0.018	0.0025 ± 0.0035	-0.011 ± 0.0057	-0.001 ± 0.017	0.012 ± 0.0085	0.013 ± 0.021	0.0235 ± 0.043	-0.026 ± 0.0071	0.03 ± 0.027	0.0085 ± 0.032	-0.005 ± 0.0028	0.0005 ± 0.0021	0.028 ± 0.02	0.0085 ± 0.0092	0.0155 ± 0.0035	0.0205 ± 0.019
3C:Proliferation	0.0395 ± 0.032	0.0005 ± 0.044	-0.014 ± 0.016	-0.002 ± 0.042	-0.0215 ± 0.0064	-0.0205 ± 0.013	-0.041 ± 0.041	-0.034 ± 0.016	-0.0165 ± 0.00071	-0.039 ± 0.02	-0.035 ± 0.0028	-0.029 ± 0.018	0.018 ± 0.03	-0.013 ± 0.017	0.004 ± 0.037	-0.023 ± 0.031	-0.015 ± 0.017	-0.0805 ± 0.032	-0.214 ± 0.033
3C:SRB	0.0095 ± 0.0021	-0.005 ± 0.0042	0.0045 ± 0.0064	-0.01 ± 0.0057	-0.0035 ± 0.00071	-0.0155 ± 0.00071	-0.0155 ± 0.0021	-0.0085 ± 0.0078	-0.008 ± 0.0028	-0.004 ± 0.0099	0.0125 ± 0.036	0.0085 ± 0.028	-0.004 ± 0.016	-0.005 ± 0.028	-0.0115 ± 0.016	-0.052 ± 0.025	-0.002 ± 0.0099	0.0145 ± 0.011	0.015
4H:CCL2/MCP-1	-0.014 ± 0.0057	-0.0255 ± 0.03	-0.038 ± 0.013	0.001 ± 0.042	0.0085 ± 0.015	-0.008 ± 0.0028	0.0145 ± 0.029	0.021 ± 0.023	-0.0005 ± 0.042	0.0235 ± 0.066	-0.048 ± 0.033	-0.0435 ± 0.025	0.0125 ± 0.023	-0.028 ± 0.013	-0.059 ± 0.017	-0.0405 ± 0.081	-0.0145 ± 0.00071	-0.015 ± 0.0028	0.0165 ± 0.026
4H:CCL26/Eotaxin-3	-0.0085 ± 0.011	-0.0305 ± 0.011	-0.002 ± 0.018	0.013 ± 0.013	0.014 ± 0.013	0.016 ± 0.017	0.016 ± 0.021	0.0035 ± 0.0078	0 ± 0.041	0.014 ± 0.05	-0.0075 ± 0.0064	0.0175 ± 0.0078	0.0025 ± 0.005	-0.002 ± 0.0085	-0.0035 ± 0.013	-0.0155 ± 0.0064	0.002 ± 0.023	-0.002 ± 0.0057	-0.0005 ± 0.0021
4H:CD62P/P-selectin	0.087 ± 0.0071	0.093 ± 0.033	-0.0085 ± 0.0064	0.0305 ± 0.012	0.034 ± 0.028	-0.012 ± 0.11	0.0625 ± 0.14	0.0275 ± 0.043	-0.0285 ± 0.087	-0.051 ± 0.071	-0.0325 ± 0.071	-0.017 ± 0.064	0.0135 ± 0.053	0.033 ± 0.078	0.0825 ± 0.0035	0.149 ± 0.014	0.038 ± 0.05	-0.0155 ± 0.018	-0.047 ± 0.023
4H:CD87/uPAR	0.0115 ± 0.021	0.0135 ± 0.0092	-0.005 ± 0.027	0.0075 ± 0.04	-0.0035 ± 0.053	0.017 ± 0.062	0.036 ± 0.12	-0.013	-0.0205 ± 0.03	-0.012 ± 0.0042	0.0005 ± 0.019	0.021 ± 0.042	0.0065 ± 0.033	0.002 ± 0.037	0.027 ± 0.017	0.019 ± 0.013	-0.009 ± 0.062	0.0005 ± 0.037	-0.003 ± 0.018
4H:CD106/VCAM-1	0.0165 ± 0.0092	0.0185 ± 0.029	0.0245 ± 0.043	0.0215 ± 0.042	0.013 ± 0.03	0.01 ± 0.034	0.014 ± 0.068	0.01 ± 0.013	-0.017 ± 0.0042	-0.023 ± 0.017	-0.021 ± 0.0071	0.01 ± 0.035	0.011 ± 0.013	0.005 ± 0.054	0.0095 ± 0.016	-0.001 ± 0.016	0.0165 ± 0.036	0.032 ± 0.023	0.0225 ± 0.059
4H:SRB	0.003 ± 0.0099	-0.0055 ± 0.00071	0 ± 0.025	-0.019 ± 0.0071	-0.0065 ± 0.011	-0.008 ± 0.0042	-0.0105 ± 0.0035	-0.015 ± 0.0085	-0.003 ± 0.0042	-0.012 ± 0.027	0.0075 ± 0.022	0.006 ± 0.0057	-0.017 ± 0.0099	0.008 ± 0.033	-0.0115 ± 0.025	-0.039 ± 0.0099	0.003 ± 0.016	0.0015 ± 0.013	0.0045 ± 0.0064
4H:VEGFR2	-0.007 ± 0.017	-0.01 ± 0.02	-0.001 ± 0.014	0.0245 ± 0.026	0.0075 ± 0.0092	0.006 ± 0.02	0.004 ± 0.023	0.0095 ± 0.04	0.0065 ± 0.033	-0.0085 ± 0.026	0.0325 ± 0.013	0.0435 ± 0.03	0.0495 ± 0.069	0.0105 ± 0.037	0.001 ± 0.027	0.051 ± 0.0099	-0.0075 ± 0.0035	0.0045 ± 0.0064	0.0235 ± 0.019

From the supplement of paper PMC10331698
